Experimental data published in ChEMBL document CHEMBL2346526, “Synthesis and antiproliferative activity of C-homo-lactam derivatives of 7-deoxycholic acid” (Bioorg Med Chem Lett, 2013).

Experiments:
Format in all cases: functional, cell-based
[1] = Cytotoxicity against GNE 2 cells (unknown origin) after 72 hrs by MTT assay
[2] = Cytotoxicity against human SMMC-7404 cells after 72 hrs by MTT assay
[3] = Cytotoxicity against human MGC7901 cells after 72 hrs by MTT assay
HeLa = assay: Cytotoxicity against human HeLa cells after 72 hrs by MTT assay
[4] = Cytotoxicity against human Tu 686 cells after 72 hrs by MTT assay
[5] = Cytotoxicity against human SPC-A cells after 72 hrs by MTT assay
[6] = Homo sapiens, HeLa, 72 h, read-out: IC50

SMILES	IC50 [1] [µM]	IC50 [2] [µM]	IC50 [3] [µM]	IC50 (HeLa; [6]) [µM]	IC50 [4] [µM]	IC50 [5] [µM]	IC50 (HeLa; hela) [µM]
COC(=O)CC[C@@H](C)[C@H]1CC[C@H]2[C@@H]3CC[C@@H]4C[C@@H](OC(C)=O)CC[C@]4(C)[C@H]3C/C(=N\O)[C@]12C	17.3	15.6	19.8	14.7	74.3	13.5	
COC(=O)CC[C@@H](C)[C@H]1CC[C@H]2[C@@H]3CC[C@@H]4C[C@@H](OC(C)=O)CC[C@]4(C)[C@H]3CC(=O)N[C@]12C	> 200	62.3	80.7	15.9	65.9	> 200	
COC(=O)CC[C@@H](C)[C@H]1CC[C@H]2[C@@H]3CC[C@@H]4C[C@@H](O)CC[C@]4(C)[C@H]3CC(=O)N[C@]12C	168	> 200	> 200	19	> 200	> 200	
C[C@H](CCC(=O)O)[C@H]1CC[C@H]2[C@@H]3CC[C@@H]4C[C@@H](O)CC[C@]4(C)[C@H]3CC(=O)N[C@]12C	168	> 200	> 200	19.2	44.3	> 200	
C[C@H](CCC(=O)O)[C@H]1CC[C@H]2[C@@H]3CC[C@@H]4CC(=O)CC[C@]4(C)[C@H]3CC(=O)N[C@]12C	> 200	> 200	> 200		16.7	> 200	> 200
CC(=O)O[C@H]1CC[C@@]2(C)[C@H](CC[C@@H]3[C@@H]2CC(=O)N[C@]2(C)[C@@H]([C@H](C)CCC(=O)O)CC[C@@H]32)C1	134	99.3	185		19.8	185	> 200
CC(=O)O[C@H]1CC[C@@]2(C)[C@H](CC[C@@H]3[C@@H]2CC(=O)N[C@]2(C)[C@@H]([C@H](C)CCC(=O)N(C)C)CC[C@@H]32)C1	151	168	88.5		74.5	130	> 200
